Experimental findings from US20010055776A1, “High throughput cell-based assay kits” (priority 2000, published 2001) are described below.

For the experiment, the system named is hemoglobin synthesis in human erythroid progenitors. As to the kind of experiment: Filter plate assay of hemoglobin (HbA) in differentiating erythroid progenitors with Europium-labeled anti-hemoglobin. The settings on record: 168 h, 0.5 mM succinylacetone, 1,000 cells/well, 3.0 μm PCF filter plate, IL-3, IL-6, SCF, EPO, 7 days, read-out: succinylacetone-mediated inhibition of hemoglobin. Type of experiment: cell-based. On the procedure: FIG. 6. Adult hemoglobin (HbA) expression by differentiating human erythroid progenitors. Cryopreserved progenitors were thawed and seeded into wells of a 96-well PCF filter plate at a density of 1,000 cells/well and cultured in the presence of IL-3, IL-6, EPO, and SCF ±/−0.5 mM succinylacetone. Hemoglobin was assayed by the filter plate procedure on day 7.
To establish the linearity of the assay relative to cell number, peripheral blood erythrocytes were seeded into wells of PCF filter plates (0.4 μm pore size for peripheral blood erythrocytes and 3.0 μm pore size for progenitor cells), fixed with 0.1 ml 1% formaldehyde for 30 minutes and then washed once with Hank's balanced salt solution (HBSS) (0.2 ml/well) and twice with HBSS containing 0.1% bovine serum albumin (BSA). All washes were done in a Millipore Silent Screen vacuum manifold with a vacuum pressure of 5″ Hg.
The cells were then permeabilized by incubation with 0.2 ml 0.1% Triton X-100 in HBSS-BSA for 10 minutes at room temperature. […] Enhancement Solution (Wallac) was added (0.1 ml/well), and after 5 minutes Europium fluorescence (excitation at […] and emission at 615 nm) was measured over a 400 μsecond time period after an initial delay of 400 μseconds with a Wallac Victor spectrofluorimeter. […]

For the compound `CC(=O)CC(=O)CCC(=O)O` [succinylacetone], the inhibition at 500 µM turned out to be 86%.
